# Laboratory results reported in patent US20090123419A1, “TREATMENT OF UTERINE CANCER AND OVARIAN CANCER WITH A PARP INHIBITOR ALONE OR IN COMBINATION WITH ANTI-TUMOR AGENTS” (BiPar Sciences, priority 2007, published 2009).
# Where two headings read alike, the source gives them in different places.
# What was measured:
# [1] = test system: panel of 63 other kinases, including native c-Abl; conditions: cited from earlier work
# [2] = test system: cells not expressing Bcr-Abl; conditions: cited from earlier work
# advanced solid tumors = assay: Phase 1b study of BA in combination with chemotherapy, clinical response via RECIST; assay type: in vivo, human; conditions: number of subjects; chemotherapy in combination with BA
# Description: The protocol has been amended to evaluate BA in combination with chemotherapy in specific tumor types.
# BA plus cytotoxic chemotherapy (CTX)
# BA Dosing: • Twice weekly; i.v. infusion • Standard 3+3 design for BA dose escalation • Dose levels studied: 2.0, 2.8, 4.0, 5.6, 8.0, and up to 11.2 mg/kg
# Clinical response via RECIST every 2 cycles
# Subjects— 18 years old with a refractory, advanced solid tumor, ECOG PS of <=2, and adequate hematological, renal, and hepatic function
# No restriction on number of prior chemotherapeutic regimens
# [3] = test system: advanced endometrial cancer; conditions: of 29 patients enrolled; preliminary data analysis; cited from earlier work
# [4] = test system: carcinosarcoma of the uterus; conditions: single agent; cited from earlier work
# endometrial carcinoma = conditions: cited from earlier work
# [5] = test system: carcinosarcoma of the uterus; conditions: cited from earlier work
# [6] = test system: carcinosarcoma of the uterus; conditions: cited from earlier work; remark: listed apart in the source
# [7] = test system: advanced or recurrent endometrial cancer; conditions: single agent; cited from earlier work
# [8] = test system: persistent or recurrent nonsquamous cell carcinoma of the cervix; conditions: cited from earlier work
compound,measurement,setting,value
NC(=O)c1cccc(-c2cc(Nc3ccc(OC(F)(F)F)cc3)ncn2)c1 [GNF-2],inhibition of a panel of 63 other kinases,[1],does not inhibit
same,toxicity towards cells not expressing Bcr-Abl,[2],complete lack of toxicity
"Nc1ccn(C2OC(CO)C(O)C2(F)F)c(=O)n1 (centres unmarked) [Gemcitabine, 4-amino-1-[3,3-difluoro-4-hydroxy-5-(hydroxymethyl)tetrahydrofuran-2-yl]-1H-pyrimidin-2-one]",CR + PR,advanced solid tumors,3
"Cn1nnc2c(C(N)=O)ncn2c1=O [Temozolomide, temozolomide]",CR + PR,advanced solid tumors,1
"COc1cc2ncnc(Nc3ccc(F)c(Cl)c3)c2cc1OCCCN1CCOCC1 [ZD1839, gefitinib]",patients with complete response,[3],1 patient
same,patients with stable disease at 6 months,[3],several
N.N.[Cl][Pt][Cl] [cisplatin],response rate,[4],18%
COc1cccc2c1C(=O)c1c(O)c3c(c(O)c1C2=O)C[C@@](O)(C(=O)CO)C[C@@H]3O[C@H]1C[C@H](N)[C@H](O)[C@H](C)O1 [doxorubicin],response rate,[4],9.8%
same,response rate (RR),"endometrial carcinoma; doxorubicin 60 mg/m^2, cisplatin 50 mg/m^2, p=0.004",25%
same,PFS,endometrial carcinoma; in vivo,3.8 months
same,OS,endometrial carcinoma; no difference observed,9 months
COc1cc([C@@H]2c3cc4c(cc3[C@@H](O[C@@H]3O[C@@H]5CO[C@@H](C)O[C@H]5[C@H](O)[C@H]3O)[C@H]3COC(=O)[C@H]23)OCO4)cc(OC)c1O [etoposide],response rate,[4],6.5%
O=P1(NCCCl)OCCCN1CCCl (centres unmarked) [ifosfamide],response rate,[4],32.2%
same,median progression-free survival,[5]; p=0.02,4 months
same,median survival,[5]; p=0.07,7.6 months
same,response rate,[5]; randomized phase III trial,36%
same,median progression-free survival,[6]; p=0.03,3.6 months
same,median survival,[6]; p=0.03,8.4 months
same,response rate,[6]; second randomized trial,29%
same,toxicity,[6]; use of ifosfamide,significant toxicity
CC(=O)O[C@H]1C(=O)[C@@]2(C)[C@H]([C@H](OC(=O)c3ccccc3)[C@]3(O)C[C@H](OC(=O)[C@H](O)[C@@H](NC(=O)c4ccccc4)c4ccccc4)C(C)=C1C3(C)C)[C@]1(OC(C)=O)CO[C@@H]1C[C@@H]2O [paclitaxel],response rate,[4],18.2%
same,response rate,[7],36%
CC/C(=C(\c1ccccc1)c1ccc(OCCN(C)C)cc1)c1ccccc1 [tamoxifen],complete responses,[8]; 27 evaluable for response,one
same,partial responses,[8]; 27 evaluable for response,two
same,grades 3 and 4 adverse effects reported,[8]; 32 patients evaluable for adverse effects,six
same,"antitumor activity, conclusion",[8]; in vivo,minimal activity
same,objective response rate,"[8]; tamoxifen citrate 10 mg orally twice a day, 27 evaluable for response",11.1%
CC[C@@]1(O)C(=O)OCc2c1cc1n(c2=O)Cc2cc3c(CN(C)C)c(O)ccc3nc2-1 [topotecan],CR + PR,advanced solid tumors,1
same,response rate,[4],10%
